# From patent US20230256139A1, “IMPLANT SURFACES FOR PAIN CONTROL” (The General Hospital Corporation, priority 2016, published 2023)
# “And” between values parts separate entries of the source, which are not always exact repeats. Identical values can stand only once. Like-named read-outs stand apart in the source and are kept apart here.
# Legend:
# [1] = Elution of lidocaine-blended UHMWPE cubes in 40° C. DI water, FTIR lidocaine index profile; format: physicochemical; conditions: 0.25 wt % and 0.50 wt % lidocaine blends, up to 6 weeks
# Procedure: These cubes were then immersed in 40° C. DI water. Groups of n=3 cubes per each wt. % were removed from the DI water and analyzed via FTIR at the following time points: 0 weeks (Control), 1 week, 2 weeks, 4 weeks, and 6 weeks.
# [2] = for amount of lidocaine eluted: cubes doped 640 min at 100° C.
# Source text: The cubes were microtomed perpendicular to a surface plane in the middle of the said surface and the FTIR spectra of the thin sections prepared as described above were obtained as a function of depth from the surface towards the bulk.
# [3] = CISM 1 cm cubes, 120° C.
# [4] = cited from earlier work
compound,measurement,setting,value
"2-(Dimethylamino)-N-(2,6-Dimethylphenyl)acetamide [lidocaine]",surface concentration of lidocaine in UHMWPE with increasing elution time,[1],decrease
same,"lidocaine eluted, percent","[2]; 40° C. DI H2O, 1 day",13%
same,amount of lidocaine eluted,"[2]; 40° C. DI H2O, 1 day",1.4 ± 0.1 mg
same,"lidocaine eluted, percent","[2]; 40° C. DI H2O, 2 days",20%
same,amount of lidocaine eluted,"[2]; 40° C. DI H2O, 2 days",2.2 ± 0.1 mg
same,"lidocaine eluted, percent","[2]; 40° C. DI H2O, 7 days",34%
same,amount of lidocaine eluted,"[2]; 40° C. DI H2O, 7 days",3.6 ± 0.1 mg
same,"lidocaine eluted, percent","[2]; 40° C. DI H2O, 14 days",45%
same,amount of lidocaine eluted,"[2]; 40° C. DI H2O, 14 days",4.8 ± 0.1 mg
same,"lidocaine eluted, percent","[2]; 40° C. DI H2O, 28 days",59%
same,amount of lidocaine eluted,"[2]; 40° C. DI H2O, 28 days",6.3 ± 0.2 mg
same,"lidocaine eluted, percent","[2]; 40° C. DI H2O, 56 days",70%
same,amount of lidocaine eluted,"[2]; 40° C. DI H2O, 56 days",7.5 ± 0.1 mg
same,"lidocaine eluted, percent","[2]; 100° C. DI H2O, 0.6 hours",19%
same,amount of lidocaine eluted,"[2]; 100° C. DI H2O, 0.6 hours",2.0 ± 0.0 mg
same,"lidocaine eluted, percent","[2]; 100° C. DI H2O, 2.6 hours",38%
same,amount of lidocaine eluted,"[2]; 100° C. DI H2O, 2.6 hours",4.1 ± 0.1 mg
same,"lidocaine eluted, percent","[2]; 100° C. DI H2O, 5.3 hours",49%
same,amount of lidocaine eluted,"[2]; 100° C. DI H2O, 5.3 hours",5.2 ± 0.0 mg
same,"lidocaine eluted, percent","[2]; 100° C. DI H2O, 12 hours",70%
same,amount of lidocaine eluted,"[2]; 100° C. DI H2O, 12 hours",7.3 ± 0.0 mg
same,"lidocaine eluted, percent","[2]; 100° C. DI H2O, 24 hours",79%
same,amount of lidocaine eluted,"[2]; 100° C. DI H2O, 24 hours",8.6 ± 0.2 mg
same,"lidocaine eluted, percent","[2]; 100° C. DI H2O, 48 hours",85%
same,amount of lidocaine eluted,"[2]; 100° C. DI H2O, 48 hours",9.0 ± 0.1 mg
same,amount of lidocaine absorbed,[3]; doping time 1 hour,10.6 ± 0.3 mg
same,amount of lidocaine absorbed,[3]; doping time 2 hours,16.8 ± 0.1 mg
same,amount of lidocaine absorbed,[3]; doping time 6 hours,30.8 ± 0.2 mg and ~31 mg
same,amount of lidocaine absorbed,[3]; doping time 12 hours,40.3 ± 0.2 mg
same,amount of lidocaine absorbed,[3]; doping time 24 hours,52.1 ± 0.9 mg
same,amount of lidocaine absorbed,[3]; doping time […],3.0 ± 0.1 mg
"CCCCN1CCCCC1C(=O)Nc1c(C)cccc1C.Cl (stereo not shown) [bupivacaine hydrochloride, 1-Butyl-N-(2,6-dimethylphenyl)-2-piperidinecarboxamide hydrochloride]",solubility in cold water,[4],soluble
same,solubility in diethyl ether,[4],partially soluble
same,solubility in methanol,[4],easily soluble
